From patent publication US12201629B2 (priority 2017, dated 2025)

Assay: Example 2: pharmacokinetics of oral and intravenous buprenorphine hydrochloride under naltrexone blockade
Details: injection, equimolar to 0.3 mg buprenorphine base, over 15 min; n = 8

Compound: CO[C@@]12CC[C@@]3(C[C@@H]1[C@](C)(O)C(C)(C)C)[C@H]1Cc4ccc(O)c5c4[C@@]3(CCN1CC1CC1)[C@H]2O5.Cl [Buprenorphine i.v., Buprenorphine HCl]
- Buprenorphine Mean Cmax: 4.26 ng/mL
- Buprenorphine Mean Tmax: 20.2 min
